Tests used:
[1] = Biliary clearance test in cats; format: in vivo; set-up: scale not given here
Protocol: This test was conducted in male or female adult cats weighing 3-4 kg.
The test material was injected intravenously, at a dosage of 0.10 g/kg iodine at the level of the internal saphenous vein. Clearance of the material was monitored by X-ray control.
X-ray pictures visualizing the gall bladder and the bladder were taken at the following times: 30 minutes, 1 hour, 2 hours, 3 hours, 4 hours, 5 hours, 6 hours.

[2] = test system: femoral artery; experiment: Effect on the femoral rate of flow (peripheral vasodilatation); format: in vivo, mongrels
Protocol: This test was carried out in Nembutal-anesthetized male or female 7-12 mongrels.
Nembutal was used at a dosage of 30 mg/kg, with Vetranquil pre-medication, (overall intravenous injection of 2.5 mg), respiration was spontaneous.
Rate of flow variations were recorded at the level of the right or left fermoral artery, by means of a Statham electromagnetic sensor.
The injections were made in a collateral of the fermoral artery, downstream of the sensor, by means of a catheter mounted by the retrograde route, so as not to perturb the blood flow.
The injections were made under a constant volume of 1.5 ml administered within 3-5 seconds.
The same volume of an iostonic sodium chloride solution was also injected.

[3] = Osmolality determination (FISKE osmometer); format: physicochemical; conditions: solutions containing 28% iodine; methylglucamine salts; extrapolation from successive dilutions
Protocol: Osmolality is determined by extrapolation of the values obtained on successive dilutions of solutions containing 28% or 38% iodine.
Osmolality readings are made with a FISKE Model 230/D/330 D osmometer. This apparatus indicates this measurement as milliosmoles per kg of solution. Its operation is based on the principles of cryoscopy. The determinations were made with solutions containing 28% iodine.

[4] = Viscosity of 28% methylglucamine salt solutions at 37° C; format: physicochemical; conditions: 28% iodine methylglucamine salt solution
Protocol: Pharmaceutical grade injectable solutions are prepared in the form of the methylgucamine or sodium salt, containing 28, 38 or 48 g iodine per 100 ml (solutions said to contain 28%, 38% and 48% iodine).
It is apparent, from said results, that, contrary to expectations, the compounds of the formula (I) have relatively low solution viscosities.

[5] = test system: mice; experiment: Acute toxicity determination, intravenous toxicity in mice; format: in vivo, mice (Swiss origin, IOPS mice of OFI strain); conditions: 24 hours
Protocol: Intravenous toxicity determination was effected in Swiss origin, IOPS mice of OFI strain.
Each dosage level was injected to a lot of 10 mice comprising 5 male and 5 female mice.
Injections were made manually, in the caudal vein, at a rate of 2 ml/minute.
Death rate during the 24 hours after injection was recorded.

[6] = test system: rats; experiment: Toxicological investigation in rats on intracisternal injection (Melartin's method); format: in vivo
Description: The results of a toxicological investigation effected in rats on intracisternal injection, according to E. Melartin's method (InvestigativeRadiology 1970 5, 1, 13-21) are also set forth below.

[7] = i.v., 0.10 g I/kg, 28% I, Mgl salt
[8] = 1.5 ml into collateral of femoral artery, 28% I, Mgl salt

Row | SMILES | Osmolality [3] | Viscosity [4] | Biliary clearance in cat, i.v. [1, 7] | Peripheral vasodilatation, femoral rate of flow [2, 8] | Acute toxicity in mice, i.v. ([5]; 28% I, Mgl salt) | also measured
1 | CNC(=O)c1c(I)c(C(=O)NCC(=O)Nc2c(I)c(C(=O)O)c(I)c(C(=O)NCCO)c2I)c(I)c(N(C)C(C)=O)c1I [Compound 1, 2,4,6-triiodo-3-N-hydroxyethylcarbamyl-5-(2,4,6-triiodo-3-N-methylcarbamyl-5-N-methyl-N-acetylaminobenzoyl)glycylamino-benzoic acid] | 510 mosm/kg | 5.4 cps | – | – | – | Biliary clearance in cat, i.v. ([1]; in vivo, iv): ±; Peripheral vasodilatation, femoral rate of flow ([2]; in vivo): +; Acute toxicity in mice, i.v. ([5]; 38% I, Mgl salt): 11.5 grams I/kg
2 | CNC(=O)c1c(I)c(NC(=O)CCCNC(=O)c2c(I)c(C(=O)NC)c(I)c(N(C)C(C)=O)c2I)c(I)c(C(=O)O)c1I [Compound 2, 2,4,6-triiodo-3-N-methylcarbamyl-5-(2,4,6-triiodo-3-N-methylcarbamyl-5-N-methylacetamido-benzoyl)-γ-aminobutyrylamino-benzoic acid] | 475 mosm/kg | 6.56 cps | 0 | + | 9.5 grams I/kg | –
3 | CNC(=O)c1c(I)c(NC(C)=O)c(I)c(C(=O)NCC(=O)Nc2c(I)c(C(=O)O)c(I)c(C(=O)NCCO)c2I)c1I [Compound 3, 2,4,6-triiodo-3-N-hydroxyethylcarbamyl-5-(2,4,6-triiodo-3-N-methylcarbamyl-5-acetamidio-benzoyl)-glycylaminobenzoic acid] | 550 mosm/kg | 5.72 cps | – | + | 9-10 grams I/kg | –
4 | CC(=O)Nc1c(I)c(C(=O)NCC(=O)Nc2c(I)c(C(=O)O)c(I)c(C(=O)NCCO)c2I)c(I)c(N(C)C(C)=O)c1I [Compound 6, 2,4,6-triiodo-3-N-hydroxyethylcarbamyl-5-(2,4,6-triiodo-3-acetamido-5-N-methylacetamido-benzoyl)-glycylamino-benzoic acid] | 480 mosm/kg | 5.2 cps | 0 | + | 10 grams I/kg | –
5 | CNC(=O)c1c(I)c(NC(=O)CNC(=O)c2c(I)c(C(=O)NCCO)c(I)c(N(C)C(C)=O)c2I)c(I)c(C(=O)O)c1I [Compound 8, 2,4,6-triiodo-3-N-methylcarbamyl-5-(2,4,6-triiodo-3-N-hydroxyethylcarbamyl-5-N-methylacetamido-benzoyl)glycyl amino-benzoic acid] | 535 mosm/kg | 5.5 cps | ± | ++ | 12 grams I/kg | –
6 | CNC(=O)c1c(I)c(NC(=O)CNC(=O)c2c(I)c(C(=O)NC)c(I)c(N(C)C(C)=O)c2I)c(I)c(C(=O)O)c1I [Compound 9, 2,4,6-triiodo-3-N-methylcarbamyl-5-(2,4,6-triiodo-3-N-methylcarbamyl-5-N-methylacetamido-benzoyl)-glycylamino-benzoic acid] | 440 mosm/kg | 5.8 cps | – | – | – | Biliary clearance in cat, i.v. ([1]; i.v., 0.10 g I/kg, 38% I, Mgl salt): ++; Peripheral vasodilatation, femoral rate of flow ([2]; 1.5 ml into collateral of femoral artery, 38% I, Mgl salt): +; Acute toxicity in mice, i.v. ([5]; 38% I, Mgl salt): 11.5 grams I/kg
7 | CNC(=O)c1c(I)c(NC(C)=O)c(I)c(C(=O)NCC(=O)N(C)c2c(I)c(C(=O)O)c(I)c(C(=O)NC)c2I)c1I [Compound 14, 2,4,6-triiodo-3-N-methylcarbamyl-5-(2,4,6-triiodo-3-N-methylcarbamyl-5-acetamido-benzoyl)-glycyl-N-methylamino-benzoic acid] | 600 mosm/kg | 5.2 cps | + | + | 12 grams I/kg | –
8 | CNC(=O)c1c(I)c(C(=O)NCCCC(=O)Nc2c(I)c(C(=O)O)c(I)c(C(=O)NCCO)c2I)c(I)c(N(C)C(C)=O)c1I [Compound 24, 2,4,6-triiodo-3-N-hydroxyethylcarbamyl5-(2,4,6-triiodo-3-N-methylcarbamyl-5-N-methylacetamidobenzoyl)-ε-amino-butyrylamino-benzoic acid] | 575 mosm/kg | 6 cps | 0 | + | 8.5 grams I/kg | –
9 | CNC(=O)c1c(I)c(NC(=O)CN(CC(=O)Nc2c(I)c(C(=O)NCCO)c(I)c(C(=O)NCCO)c2I)CC(=O)Nc2c(I)c(C(=O)NCCO)c(I)c(C(=O)NCCO)c2I)c(I)c(C(=O)O)c1I [Compound 31, 2,4,6-triiodo--3-N-methylcarbamyl-5-bis{[2,4,6-triiodo-3,5-bis(N-hydroxyethylcarbamyl)-phenyl]carbamylmethyl} aminoacetamido-benzoic acid] | 350 mosm/kg | 10.2 cps | 0 | + | 15 grams I/kg | Death rate ([6]; 56 mg I per rat): 1/10
10 | CC(=O)N(C)c1c(I)c(NC(=O)CN(CC(=O)Nc2c(I)c(C(=O)NCCO)c(I)c(C(=O)NCCO)c2I)CC(=O)Nc2c(I)c(C(=O)NCCO)c(I)c(C(=O)NCCO)c2I)c(I)c(C(=O)O)c1I [Compound 32, 2,4,6-triiodo-3-N-methylacetamido-5-bis{[2,4,6-triiodo-3,5-bis(N-hydroxyethylcarbamyl)-phenyl]carbamylmethyl}aminoacetamido-benzoic acid] | 270 mosm/kg | – | 0 | + | 15 grams I/kg | Death rate ([6]; 50 mg I per rat): 0/10
11 | CNC(=O)c1c(I)c(C(=O)O)c(I)c(N(C)C(=O)CN(CC(=O)Nc2c(I)c(C(=O)NCCO)c(I)c(C(=O)NCCO)c2I)CC(=O)Nc2c(I)c(C(=O)NCCO)c(I)c(C(=O)NCCO)c2I)c1I [Compound 33, 2,4,6-triiodo-3-N-methylcarbamyl-5-bis{[2,4,6-triiodo-3,5,-bis(N-hydroxyethylcarbamyl)-phenyl]carbamylmethyl}amino-N-methylacetamido-benzoic acid] | 370 mosm/kg | – | – | – | – | Peripheral vasodilatation, femoral rate of flow ([2]; 1.5 ml into collateral of femoral artery, 38% I, Na salt): ++; Death rate ([6]; 56 mg I per rat): 0/10; Acute toxicity in mice, i.v. ([5]; 38% I, Na salt): 17 grams I/kg
12 | CNC(=O)c1c(I)c(NC(C)=O)c(I)c(C(=O)O)c1I [a, 2,4,6-Triiodo-3-N-methylcarbamyl-5-acetamido-benzoic acid, reference compound] | 1410 mosm/kg | – | – | +++ | 5.4 grams I/kg | Biliary clearance in cat, i.v. ([1]; in vivo, iv): 0
13 | CC(=O)Nc1c(I)c(C(=O)O)c(I)c(C(=O)NCCO)c1I [b, 2,4,6-Triiodo-3-N-hydroxyethylcarbamyl-5-acetamido-benzoic acid, reference compound] | 1390 mosm/kg | – | – | – | – | Biliary clearance in cat, i.v. ([1]; i.v., 0.10 g I/kg, 30% I, Mgl salt): 0; Peripheral vasodilatation, femoral rate of flow ([2]; 1.5 ml into collateral of femoral artery, 30% I, Mgl salt): +++; Acute toxicity in mice, i.v. ([5]; 30% I, Mgl salt): 5.6 grams I/kg
14 | CNC(=O)c1c(I)c(NC(=O)CCCCC(=O)Nc2c(I)c(C(=O)O)c(I)c(C(=O)NC)c2I)c(I)c(C(=O)O)c1I [c, 5,5'-Adipoyldiimido-bis-(2,4,6-triiodo-N-methylisophthalamic)acid, reference compound] | 950 mosm/kg | – | 0 | ++ | 6.2 grams I/kg | Death rate ([6]; 17 mg I per rat): 9/10

Reference: US4094966A, “Iodobenzene derivatives and X-ray contrast media containing the same” (priority 1974, dated 1978)
